Measurements: the supplement of paper PMC11208160

Assay: recombinant barcode read abundance after kanamycin selection (control-corrected) (log10(CPM+1)); higher = more efficient recombination; sequences stand for … in AGTGCAGAGAAAATCGGCCAGTTTTCTCTGCCTGCAGTCCGCATGCCGT…AGATTTATGCAGCGGACTGCCTTTCTCCCAAAGTGATAAACCGGACAGTATCATGGACCGGTTTTCCCGGTAATCCGTATTTGCAAGGTTGGTTTCACT; site = the 11-nt target
Procedure, shortened: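 IS621 bridge RNA target-binding loops were paired with targets in a pooled library tested in E. coli. After co-electroporation with a donor plasmid, cells were plated in two replicates on chloramphenicol/ampicillin LB agar (control) and on chloramphenicol/ampicillin/kanamycin carrying 0.1 mM IPTG. Barcodes at recombinant junctions were counted as counts per million, averaged and control-corrected to give recombination efficiency. Values are log10(CPM+1).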
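Also: IS621 recombinase and bridge RNA in Escherichia coli cells.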

Point of comparison: “GATCGATCTTGGGTTCTAACCTGTTGCCT (site GATCGATCTAT)”, “recombinant barcode read abundance (log10)” value 0.0541. Against it:
- GAGGTATCTTGGGTTCTAACCTGTTGCCA (site GAGGTATCTTG) — higher, 1.12
- GAGGTATCTTGGGTTCTAACCTGTTGCTA (site GAGGTATCTAA) — within 0.2 log units, 0.201
- GAGGTATCTTGGGTTCTAACCTGTTGCTA (site GAGGTATCTTA) — higher, 0.345
- GAGGTGCCTTGGGTTCTAACCTGTTGCTG (site CTAACTACTAC) — within 0.2 log units, 0.0482
- GAGGTGCCTTGGGTTCTAACCTGTTGCTG (site GAGGTGCCTCA) — higher, 2
- GAGTCGCCTTGGGTTCTAACCTGTTGCCT (site GAGTCGCCTAG) — higher, 0.263
- GAGTCGCCTTGGGTTCTAACCTGTTGCCT (site GAGTCGTCTAG) — within 0.2 log units, 0.118
- GAGTCGCCTTGGGTTCTAACCTGTTGCGG (site GAGTAGCCTCC) — within 0.2 log units, 0.0862
- GAGTCGCCTTGGGTTCTAACCTGTTGCGG (site GAGTCGCCTCC) — higher, 1.22
- GAGTCGCCTTGGGTTCTAACCTGTTGCGG (site GAGTGGCCTCC) — within 0.2 log units, 0.188
- GAGTCGCCTTGGGTTCTAACCTGTTGCGG (site GAGTTGCCTCC) — within 0.2 log units, 0.0886
- GAGTCGGCTTGGGTTCTAACCTGTTGCTT (site GAGACGGCTAA) — within 0.2 log units, 0.23
- GAGTCGGCTTGGGTTCTAACCTGTTGCTT (site GAGCCGGCTAA) — within 0.2 log units, 0
- GAGTCGGCTTGGGTTCTAACCTGTTGCTT (site GAGGCGGCTAA) — within 0.2 log units, 0.0495
- GAGTCGGCTTGGGTTCTAACCTGTTGCTT (site GAGTCGGCTAA) — higher, 0.778
- GAGTCTACTTGGGTTCTAACCTGTTGCAG (site GAGTCTACTCG) — higher, 0.339
- GAGTCTACTTGGGTTCTAACCTGTTGCAG (site GAGTCTACTCT) — higher, 0.494
- GAGTCTACTTGGGTTCTAACCTGTTGCTT (site GAATCTACTAA) — within 0.2 log units, 0.0356
- GAGTCTACTTGGGTTCTAACCTGTTGCTT (site GACTCTACTAA) — higher, 0.813
- GAGTCTACTTGGGTTCTAACCTGTTGCTT (site GAGTCTACTAA) — within 0.2 log units, 0
- GAGTCTACTTGGGTTCTAACCTGTTGCTT (site GATTCTACTAA) — within 0.2 log units, 0.0603
- GAGTCTTCTTGGGTTCTAACCTGTTGCCA (site CTACAGGCTGT) — higher, 0.281
- GAGTCTTCTTGGGTTCTAACCTGTTGCCA (site GAGTCTTCTTG) — within 0.2 log units, 0.147
- GAGTCTTCTTGGGTTCTAACCTGTTGCTA (site GAGTACTCTTA) — within 0.2 log units, 0.0434
- GAGTCTTCTTGGGTTCTAACCTGTTGCTA (site GAGTCTTCTTA) — within 0.2 log units, 0.0462
- GAGTGCTCTTGGGTTCTAACCTGTTGCAG (site GAGCGCTCTCT) — higher, 0.676
- GAGTGCTCTTGGGTTCTAACCTGTTGCAG (site GAGTGCTCTCT) — higher, 1.26
- GAGTGGACTTGGGTTCTAACCTGTTGCGT (site GACCGGACTAC) — higher, 0.349
- GAGTGGACTTGGGTTCTAACCTGTTGCGT (site GAGTGGACTAC) — higher, 2.7
- GAGTGTCCTTGGGTTCTAACCTGTTGCGA (site GAGTGTCCTTC) — higher, 1.87
- GAGTGTCCTTGGGTTCTAACCTGTTGCGA (site GTGTCTCCTTC) — within 0.2 log units, 0.0874
- GAGTTCACTTGGGTTCTAACCTGTTGCAG (site AGTCGTTCTAG) — within 0.2 log units, 0.141
- GAGTTCACTTGGGTTCTAACCTGTTGCAG (site GAGTTCACTCT) — higher, 1.79
- GAGTTGCCTTGGGTTCTAACCTGTTGCCT (site GAGTTGCCTAG) — higher, 1.05
- GAGTTGCCTTGGGTTCTAACCTGTTGCCT (site GCGTTGCCTAG) — within 0.2 log units, 0.107
- GAGTTGCCTTGGGTTCTAACCTGTTGCCT (site GGGTTGCCTAG) — within 0.2 log units, 0.0448
- GAGTTGCCTTGGGTTCTAACCTGTTGCCT (site GTGTTGCCTAG) — higher, 1.59
- GAGTTGCCTTGGGTTCTAACCTGTTGCGG (site GAGTAGCCTCC) — within 0.2 log units, 0.0344
- GAGTTGCCTTGGGTTCTAACCTGTTGCGG (site GAGTCGCCTCC) — within 0.2 log units, 0.25
- GAGTTGCCTTGGGTTCTAACCTGTTGCGG (site GAGTGGCCTCC) — within 0.2 log units, 0.101
- GAGTTGCCTTGGGTTCTAACCTGTTGCGG (site GAGTTGCCTCC) — higher, 2.32
- GAGTTTGCTTGGGTTCTAACCTGTTGCCT (site GAGTTTGCTAG) — higher, 0.572
- GAGTTTGCTTGGGTTCTAACCTGTTGCCT (site GCGTTTGCTAG) — within 0.2 log units, 0.0311
- GAGTTTGCTTGGGTTCTAACCTGTTGCCT (site GGGTTTGCTAG) — within 0.2 log units, 0.124
- GAGTTTGCTTGGGTTCTAACCTGTTGCCT (site GTGTTTGCTAG) — within 0.2 log units, 0.0382
- GATACGGCTTGGGTTCTAACCTGTTGCCT (site GATACGACTAG) — within 0.2 log units, 0.169
- GATACGGCTTGGGTTCTAACCTGTTGCCT (site GATACGCCTAG) — within 0.2 log units, 0
- GATACGGCTTGGGTTCTAACCTGTTGCCT (site GATACGGCTAG) — within 0.2 log units, 0.149
- GATACGGCTTGGGTTCTAACCTGTTGCCT (site GATACGTCTAG) — within 0.2 log units, 0.0137
- GATAGGCCTTGGGTTCTAACCTGTTGCCT (site GATAGGCCTAG) — within 0.2 log units, 0.101
- GATAGGCCTTGGGTTCTAACCTGTTGCCT (site GTTAGGCCTAG) — within 0.2 log units, 0.031
- GATAGTCCTTGGGTTCTAACCTGTTGCCT (site GATAGTACTAG) — within 0.2 log units, 0.122
- GATAGTCCTTGGGTTCTAACCTGTTGCCT (site GATAGTCCTAG) — higher, 0.322
- GATAGTCCTTGGGTTCTAACCTGTTGCCT (site GATAGTGCTAG) — within 0.2 log units, 0.161
- GATAGTCCTTGGGTTCTAACCTGTTGCCT (site GATAGTTCTAG) — within 0.2 log units, 0.159
- GATATAGCTTGGGTTCTAACCTGTTGCGG (site GATATAGCTCC) — higher, 2.31
- GATATAGCTTGGGTTCTAACCTGTTGCGG (site GTGATAGCTCC) — within 0.2 log units, 0.0376
- GATCCCACTTGGGTTCTAACCTGTTGCCT (site GATCCCACTAG) — higher, 1.34
- GATCCCACTTGGGTTCTAACCTGTTGCCT (site GATGCCACTAG) — within 0.2 log units, 0.192
- GATCGATCTTGGGTTCTAACCTGTTGCCT (site GATCGATCTAA) — within 0.2 log units, 0.0447
- GATCGATCTTGGGTTCTAACCTGTTGCCT (site GATCGATCTAC) — within 0.2 log units, 0.159
- GATCGATCTTGGGTTCTAACCTGTTGCCT (site GATCGATCTAG) — higher, 0.663
- GATCGATCTTGGGTTCTAACCTGTTGCTT (site GATCGATCTAA) — higher, 0.349
- GATCGATCTTGGGTTCTAACCTGTTGCTT (site GATCGATCTAC) — within 0.2 log units, 0
- GATCGATCTTGGGTTCTAACCTGTTGCTT (site GATCGATCTAG) — within 0.2 log units, 0.248
- GATCGATCTTGGGTTCTAACCTGTTGCTT (site GATCGATCTAT) — within 0.2 log units, 0.0953
- GATCGGACTTGGGTTCTAACCTGTTGCGG (site GATCGGACTCC) — higher, 1.69
- GATCGGACTTGGGTTCTAACCTGTTGCGG (site GTTCGGACTCC) — higher, 0.596
- GATGCACCTTGGGTTCTAACCTGTTGCGG (site GATGCACCTCC) — higher, 2.36
- GATGCACCTTGGGTTCTAACCTGTTGCGG (site TGATTGACTAA) — within 0.2 log units, 0.0617
- GATGCTACTTGGGTTCTAACCTGTTGCAG (site GATACTACTCT) — within 0.2 log units, 0.0793
- GATGCTACTTGGGTTCTAACCTGTTGCAG (site GATGCTACTCT) — higher, 1.04
- GATGCTACTTGGGTTCTAACCTGTTGCGG (site GAAGCTACTAC) — within 0.2 log units, 0.128
- GATGCTACTTGGGTTCTAACCTGTTGCGG (site GATGCTACTCC) — higher, 2.14
- GATGGAGCTTGGGTTCTAACCTGTTGCGG (site GATCGAGCTTC) — within 0.2 log units, 0.198
- GATGGAGCTTGGGTTCTAACCTGTTGCGG (site GATGGAGCTCC) — higher, 2.57
- GATGGGTCTTGGGTTCTAACCTGTTGCCT (site GATGGGTCTAG) — higher, 1.37
- GATGGGTCTTGGGTTCTAACCTGTTGCCT (site GCTGGGTCTAG) — within 0.2 log units, 0.015
- GATGGTCCTTGGGTTCTAACCTGTTGCGG (site GACGGTCCTCC) — higher, 0.306
- GATGGTCCTTGGGTTCTAACCTGTTGCGG (site GATGGTCCTCC) — higher, 2.34
- GATTATACTTGGGTTCTAACCTGTTGCTT (site GATTATACTAA) — within 0.2 log units, 0.0285
- GATTATACTTGGGTTCTAACCTGTTGCTT (site TGCGGAGCTCG) — within 0.2 log units, 0.046
- GATTCTCCTTGGGTTCTAACCTGTTGCCT (site GATTCTCCTAA) — within 0.2 log units, 0.0949
- GATTCTCCTTGGGTTCTAACCTGTTGCCT (site GATTCTCCTAC) — within 0.2 log units, 0.0529
- GATTCTCCTTGGGTTCTAACCTGTTGCCT (site GATTCTCCTAG) — within 0.2 log units, 0.0773
